Data reported in US20200131495A1, “PROTEINS DERIVED FROM CLPB AND USES THEREOF” (priority 2017, published 2020).

Columns and labels:
MC3R = MC3R (Mus musculus, UniProt P33033); details: Ericson et al., 2015; cited from earlier work
MC1R = MC1R (Mus musculus, UniProt Q01727); details: Ericson et al., 2015; cited from earlier work
MC4R = MC4R (Mus musculus, UniProt P56450); details: Ericson et al., 2015; cited from earlier work
MCSR = MCSR (Mus musculus, UniProt P41149); details: Ericson et al., 2015; cited from earlier work
Chain of MCSR (P41149 whole entry): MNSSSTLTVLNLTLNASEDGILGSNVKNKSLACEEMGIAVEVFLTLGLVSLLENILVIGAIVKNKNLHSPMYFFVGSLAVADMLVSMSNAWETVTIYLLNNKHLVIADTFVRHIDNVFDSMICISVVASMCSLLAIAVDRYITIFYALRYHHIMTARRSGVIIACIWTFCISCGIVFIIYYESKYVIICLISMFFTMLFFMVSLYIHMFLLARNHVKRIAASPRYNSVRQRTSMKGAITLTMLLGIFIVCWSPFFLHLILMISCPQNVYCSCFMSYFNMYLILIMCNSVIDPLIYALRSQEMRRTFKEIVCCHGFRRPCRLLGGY

[1] = Food intake of mice in BioDAQ cages after i.p. or oral administration; format: in vivo; details: for food intake in mice, oral administration: 60 pmol in 200 μL, FIG. 8
Protocol: Male C57/B16 mice were placed in the BioDAQ mouse cages (Research Diets, Inc., New Brunswick, N.J.) alone to measure the food intake. Each mouse was administered either physiological serum (n=6), full-length ClpB, or fragment of ˜25 kDa.
Two modes of administration were tested: intraperitoneal (i.p.) injection at a concentration of 2 pmol in a volume of 200 μL (n=8), and oral administration at a concentration of 60 pmol in a volume of 200 μL (n=10).

[2] = test system: intestinal tissues from rats (colons and ileums); assay: PYY secretion experiment in rat colons and ileums; format: cell-based; details: 10 nM, 20 min, control PBS, FIG. 6
Protocol: Colons and ileums were removed from male rats (Janvier Labs, Genest-Saint-Isle, France). They were washed with ice-cold PBS, then with ice-cold L-15 (Leibowitz) medium (PAA, Yeovil, UK). Then they were digested with 0.4 mg/mL collagenase XI (Sigma, Poole, UK) in High-Glucose DMEM (+1% L-Glutamine+1% Penicillin+1% Streptomycin+1% and non-essential amino acids) at 37° C. during 10 min. Cells suspensions were centrifuged (10 min at 400 g) and the pellets were resuspended in High-Glucose DMEM (the same that previously but with 10% Fetal Bovine Serum (FBS). Cell suspensions were filtered through a nylon mesh (pore size 100 Jpm) (Merck Millipore, Mass., USA) and plated onto 24 well, 1% Matrigel-coated plates (Corning, N.Y., US). The plates were incubated overnight at 37° C. in an atmosphere of […] and 5% CO2.
After 24 hours of culture, cells were incubated for 20 min in a water bath with secretion buffer (4 mM KCl, 138 mM NaCl, 1.2 mM NaHCO3, 1.2 mM NaH2PO4, 2.6 mM CaCl2), 1.2 mM MgCl2 and 10 mM HEPES) adjusted at pH 7.4) and full-length ClpB or the ˜25 kDa fragment at a concentration of 10 nM. […]
After incubation, the cells were treated with lysis buffer (50 mmol/L Tris-HCl, 150 mmol/L NaCl, 1% IGEPAL CA-630, 0.5% deoxycholic acid+cocktail of protease inhibitor tablets complete without EDTA) to extract intracellular peptides. […] Lysates were stored at −80° C. if not analyzed immediately. […]

anti-α-MSH antibody = assay: Western blot revealed with anti-α-MSH antibody; format: binding, rabbit; details: FIG. 3 (trypsinised ClpB); FIG. 4 (colic mucosa, hypothalamus, plasma of mice and rats)
Protocol: First the fragmentation was performed on different conditions: ClpB diluted at 1/10 (from the stock at 5 mg/mL) and ClpB 1/10 with 0.0025% trypsin. Those different conditions were placed during 20 minutes at 37° C. After incubation, the fragmentation was immediately stopped by placing tubes on ice and western blot was performed.
After fragmentation, Leamli solution without J-mercaptoethanol was added into tubes to perform western on 20% acrylamide SDS gel in Tris-Glycine buffer (BioRad, Hercules, USA) and transferred to a nitrocellulose membrane (GE Healthcare, Orsay, France). Then, the membrane was blocked for at least 1 h at room temperature with 5% (w/v) non-fat dry milk in TBS (10 mmol/L Tris, pH 8; 150 mmol/L NaCl) plus 0.05% (w/v) Tween 20. After blocking, the […] The membrane was incubated overnight at 4° C. with rabbit polyclonal anti-α-MSH antibodies (1:1000, Phoenix Pharmaceuticals). After three washes in a blocking solution of 5% (w/v) non-fat dry milk in TBS/0.05% Tween 20, membranes were incubated for 1 h with peroxidase-conjugated anti rabbit IgG (1:1000, SantaCruz Biotechnology). […]
Tissues were incubated with extracted buffer (PBS+protease inhibitor (1%)). The volume added depends of sample quantity. […] The supernatant was stored at −80° C. if not analysed immediately. […]

Chain of MC1R (Q01727 whole entry): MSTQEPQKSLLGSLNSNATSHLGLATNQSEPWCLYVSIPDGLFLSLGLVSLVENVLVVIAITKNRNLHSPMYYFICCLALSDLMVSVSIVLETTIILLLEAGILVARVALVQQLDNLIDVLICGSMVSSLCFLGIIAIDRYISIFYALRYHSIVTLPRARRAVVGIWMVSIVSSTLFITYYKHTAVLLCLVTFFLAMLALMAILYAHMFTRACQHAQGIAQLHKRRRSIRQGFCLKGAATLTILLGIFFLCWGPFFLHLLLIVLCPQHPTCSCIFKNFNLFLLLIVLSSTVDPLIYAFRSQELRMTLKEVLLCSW
Chain of MC3R (P33033 whole entry): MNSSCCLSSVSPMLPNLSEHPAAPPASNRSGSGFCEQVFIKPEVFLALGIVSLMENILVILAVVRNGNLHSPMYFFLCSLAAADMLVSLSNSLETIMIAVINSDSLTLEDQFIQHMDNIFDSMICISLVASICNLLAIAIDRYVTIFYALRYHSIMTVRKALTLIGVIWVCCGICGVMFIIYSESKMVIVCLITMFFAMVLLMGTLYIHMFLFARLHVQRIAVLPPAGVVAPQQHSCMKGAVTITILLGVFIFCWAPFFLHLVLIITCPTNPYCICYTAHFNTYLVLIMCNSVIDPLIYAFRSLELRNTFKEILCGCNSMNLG
Chain of MC4R (P56450 whole entry): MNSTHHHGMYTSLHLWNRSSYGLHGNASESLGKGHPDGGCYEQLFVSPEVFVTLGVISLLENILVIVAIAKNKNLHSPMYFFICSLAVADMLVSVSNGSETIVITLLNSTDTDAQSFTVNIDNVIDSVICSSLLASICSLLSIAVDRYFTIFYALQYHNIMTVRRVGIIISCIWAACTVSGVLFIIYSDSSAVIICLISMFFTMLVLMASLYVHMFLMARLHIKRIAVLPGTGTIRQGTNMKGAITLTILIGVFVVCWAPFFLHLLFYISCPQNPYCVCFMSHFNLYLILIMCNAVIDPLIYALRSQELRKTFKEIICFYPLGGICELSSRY

Row | Substance | activity on MC3R (MC3R) | MC1R agonist activity (MC1R) | activity on MC4R (MC4R) | activity on MCSR (MCSR) | duration of the decrease of food intake ([1]; i.p. 2 pmol and oral 60 pmol in 200 μL, FIGS. 7 and 8) | food intake in mice ([1]; i.p. 2 pmol and oral 60 pmol in 200 μL, FIGS. 7 and 8, compared with full-length ClpB protein) | food intake in mice, oral administration [1] | PYY secretion compared to the control [2] | recognition by anti-α-MSH antibodies (Western blot) (anti-α-MSH antibody)
1 | AEIAEVLARWTGIPV (ClpB fragment) [modified short ClpB fragment studied by Ericson et al] | partial activities | full micromolar MC1R agonist | not on MC4R | partial activities |  |  |  |  | 
2 | fragment of ˜25 kDa: sequence of ClpB from amino acid 537 to amino acid 756 (SEQ ID NO: 22), produced by trypsinisation of ClpB |  |  |  |  | at least 90 min | decreases food intake in mice at least as much as the full-length ClpB protein | decreases food intake | increase PYY secretion | revealed with polyclonal anti-α-MSH
3 | full-length ClpB: chaperone protein ClpB (caseinolytic protease B), ˜96 kDa, 857 amino acids, from E. Coli K12 |  |  |  |  |  |  | no such effect | increase PYY secretion | 
